Data published in patent publication US20130065818A1, “Arylamide Compounds And Compositions And Uses Thereof” (POLYMEDIX, priority 2006, published 2013).

Tests used:
Test in all cases: MIC of clinical ocular isolates (Example 1)
Assay type in all cases: cell-based
[1] = system: Serratia marcescens (SM); conditions: SM clinical ocular isolates (n=27)
[2] = system: CR S. epidermidis (CRSE); conditions: Staphylococcus epidermidis; CRSE clinical ocular isolates (n=26)
[3] = system: H. influenzae (HI); conditions: Haemophilus influenzae; HI clinical ocular isolates (n=26)
[4] = system: P. aeruginosa (PA); conditions: Pseudomonas aeruginosa; PA clinical ocular isolates (n=26)
[5] = system: St. viridans group (SV); conditions: Streptococcus viridans
[6] = system: St. pneumoniae (SP); conditions: Streptococcus pneumoniae; SP clinical ocular isolates (n=27)
[7] = system: Ciprofloxacin Susceptible (CS) S. aureus (CSSA); conditions: Staphylococcus aureus; CSSA clinical ocular isolates (n=27)
[8] = system: Moraxella Species (MS); conditions: MS clinical ocular isolates (n=25)

MIC50 [1]: 16 mg/L
MIC90 [1]: 32 mg/L
MIC50 [2]: 0.03 mg/L
MIC90 [2]: 0.03 mg/L
MIC50 [3]: 8 mg/L
MIC90 [3]: 16 mg/L
MIC50 [4]: 4 mg/L
MIC90 [4]: 8 mg/L
MIC50 [5]: 4 mg/L
MIC90 [5]: 32 mg/L
MIC50 [6]: 1 mg/L
MIC90 [6]: 2 mg/L
MIC50 [7]: 0.125 mg/L
MIC90 [7]: 0.25 mg/L
MIC50 [8]: 0.25 mg/L
MIC90 [8]: 0.5 mg/L
SMILES: N=C(N)NCCCCC(=O)Nc1cc(C(F)(F)F)cc(NC(=O)c2cc(C(=O)Nc3cc(C(F)(F)F)cc(NC(=O)CCCCNC(=N)N)c3SCCN)ncn2)c1SCCN [Oligomer 2]
